Data published in the NIST ThermoML archive (doi:10.1016/j.jct.2016.01.028).
± gives the expanded uncertainty stated by the source.

Test: xn = mol fraction of the nth substance listed
Conditions: 102 kPa, Liquid; for speed of sound: Frequency=5 MHz, Single path-length method; for mass density: Vibrating tube method

## CCCCC(=O)[O-].C[NH2+]CCO [2-hydroxy-N-methylethanaminium pentanoate] + O
298.15 K, x1 = 0.0199
  speed of sound: 1645.3 ± 14 m/s
  mass density: 1013 ± 4 kg/m3
298.15 K, x1 = 0.05
  speed of sound: 1705.8 ± 14 m/s
  mass density: 1026 ± 4 kg/m3
298.15 K, x1 = 0.0988
  speed of sound: 1670.2 ± 14 m/s
  mass density: 1027.5 ± 4 kg/m3
298.15 K, x1 = 0.2023
  speed of sound: 1644.9 ± 14 m/s
  mass density: 1029.9 ± 4 kg/m3
298.15 K, x1 = 0.3
  speed of sound: 1633.5 ± 14 m/s
  mass density: 1028.5 ± 4 kg/m3
298.15 K, x1 = 0.4053
  speed of sound: 1609.2 ± 14 m/s
  mass density: 1025.2 ± 4 kg/m3
298.15 K, x1 = 0.5003
  speed of sound: 1583.7 ± 14 m/s
  mass density: 1021 ± 4 kg/m3
298.15 K, x1 = 0.5993
  speed of sound: 1571.3 ± 14 m/s
  mass density: 1019.1 ± 4 kg/m3
298.15 K, x1 = 0.8061
  speed of sound: 1541.8 ± 14 m/s
  mass density: 1013.3 ± 4 kg/m3
298.15 K, x1 = 1
  speed of sound: 1516.3 ± 14 m/s
  mass density: 1009.3 ± 4 kg/m3
303.15 K, x1 = 0.0199
  speed of sound: 1644.5 ± 14 m/s
  mass density: 1009.6 ± 4 kg/m3
303.15 K, x1 = 0.05
  speed of sound: 1698.6 ± 14 m/s
  mass density: 1022.7 ± 4 kg/m3
303.15 K, x1 = 0.0988
  speed of sound: 1659.8 ± 14 m/s
  mass density: 1024.2 ± 4 kg/m3
303.15 K, x1 = 0.2023
  speed of sound: 1631.5 ± 14 m/s
  mass density: 1026.8 ± 4 kg/m3
303.15 K, x1 = 0.3
  speed of sound: 1618.8 ± 14 m/s
  mass density: 1025.4 ± 4 kg/m3
303.15 K, x1 = 0.4053
  speed of sound: 1594.7 ± 14 m/s
  mass density: 1022.1 ± 4 kg/m3
303.15 K, x1 = 0.5003
  speed of sound: 1568.6 ± 14 m/s
  mass density: 1017.8 ± 4 kg/m3
303.15 K, x1 = 0.5993
  speed of sound: 1556.3 ± 14 m/s
  mass density: 1015.9 ± 4 kg/m3
303.15 K, x1 = 0.8061
  speed of sound: 1526.5 ± 14 m/s
  mass density: 1010.1 ± 4 kg/m3
303.15 K, x1 = 1
  speed of sound: 1503.7 ± 14 m/s
  mass density: 1006 ± 4 kg/m3
308.15 K, x1 = 0.0199
  speed of sound: 1643.7 ± 14 m/s
  mass density: 1006.1 ± 4 kg/m3
308.15 K, x1 = 0.05
  speed of sound: 1691.5 ± 14 m/s
  mass density: 1019.3 ± 4 kg/m3
308.15 K, x1 = 0.0988
  speed of sound: 1649.5 ± 14 m/s
  mass density: 1020.9 ± 4 kg/m3
308.15 K, x1 = 0.2023
  speed of sound: 1618.1 ± 14 m/s
  mass density: 1023.7 ± 4 kg/m3
308.15 K, x1 = 0.3
  speed of sound: 1604.2 ± 14 m/s
  mass density: 1022.3 ± 4 kg/m3
308.15 K, x1 = 0.4053
  speed of sound: 1580.2 ± 14 m/s
  mass density: 1018.9 ± 4 kg/m3
308.15 K, x1 = 0.5003
  speed of sound: 1553.5 ± 14 m/s
  mass density: 1014.6 ± 4 kg/m3
308.15 K, x1 = 0.5993
  speed of sound: 1541.4 ± 14 m/s
  mass density: 1012.7 ± 4 kg/m3
308.15 K, x1 = 0.8061
  speed of sound: 1511.2 ± 14 m/s
  mass density: 1006.9 ± 4 kg/m3
308.15 K, x1 = 1
  speed of sound: 1486.5 ± 14 m/s
  mass density: 1002.8 ± 4 kg/m3
313.15 K, x1 = 0.0199
  speed of sound: 1642.9 ± 14 m/s
  mass density: 1002.7 ± 4 kg/m3
313.15 K, x1 = 0.05
  speed of sound: 1684.3 ± 14 m/s
  mass density: 1015.9 ± 4 kg/m3
313.15 K, x1 = 0.0988
  speed of sound: 1639.1 ± 14 m/s
  mass density: 1017.7 ± 4 kg/m3
313.15 K, x1 = 0.2023
  speed of sound: 1604.8 ± 14 m/s
  mass density: 1020.7 ± 4 kg/m3
313.15 K, x1 = 0.3
  speed of sound: 1589.6 ± 14 m/s
  mass density: 1019.2 ± 4 kg/m3
313.15 K, x1 = 0.4053
  speed of sound: 1565.7 ± 14 m/s
  mass density: 1015.8 ± 4 kg/m3
313.15 K, x1 = 0.5003
  speed of sound: 1538.4 ± 14 m/s
  mass density: 1011.5 ± 4 kg/m3
313.15 K, x1 = 0.5993
  speed of sound: 1526.5 ± 14 m/s
  mass density: 1009.5 ± 4 kg/m3
313.15 K, x1 = 0.8061
  speed of sound: 1495.9 ± 14 m/s
  mass density: 1003.6 ± 4 kg/m3
313.15 K, x1 = 1
  speed of sound: 1471 ± 14 m/s
  mass density: 999.6 ± 4 kg/m3
318.15 K, x1 = 0.0199
  speed of sound: 1642.2 ± 14 m/s
  mass density: 999.3 ± 4 kg/m3
318.15 K, x1 = 0.05
  speed of sound: 1677.2 ± 14 m/s
  mass density: 1012.6 ± 4 kg/m3
318.15 K, x1 = 0.0988
  speed of sound: 1628.8 ± 14 m/s
  mass density: 1014.4 ± 4 kg/m3
318.15 K, x1 = 0.2023
  speed of sound: 1591.4 ± 14 m/s
  mass density: 1017.6 ± 4 kg/m3
318.15 K, x1 = 0.3
  speed of sound: 1575 ± 14 m/s
  mass density: 1016.1 ± 4 kg/m3
318.15 K, x1 = 0.4053
  speed of sound: 1551.2 ± 14 m/s
  mass density: 1012.7 ± 4 kg/m3
318.15 K, x1 = 0.5003
  speed of sound: 1523.3 ± 14 m/s
  mass density: 1008.3 ± 4 kg/m3
318.15 K, x1 = 0.5993
  speed of sound: 1511.5 ± 14 m/s
  mass density: 1006.3 ± 4 kg/m3
318.15 K, x1 = 0.8061
  speed of sound: 1480.6 ± 14 m/s
  mass density: 1000.4 ± 4 kg/m3
318.15 K, x1 = 1
  speed of sound: 1457 ± 14 m/s
  mass density: 996.3 ± 4 kg/m3
323.15 K, x1 = 0.0199
  speed of sound: 1641.4 ± 14 m/s
  mass density: 995.8 ± 4 kg/m3
323.15 K, x1 = 0.05
  speed of sound: 1670 ± 14 m/s
  mass density: 1009.2 ± 4 kg/m3
323.15 K, x1 = 0.0988
  speed of sound: 1618.5 ± 14 m/s
  mass density: 1011.1 ± 4 kg/m3
323.15 K, x1 = 0.2023
  speed of sound: 1578 ± 14 m/s
  mass density: 1014.6 ± 4 kg/m3
323.15 K, x1 = 0.3
  speed of sound: 1560.4 ± 14 m/s
  mass density: 1012.9 ± 4 kg/m3
323.15 K, x1 = 0.4053
  speed of sound: 1536.7 ± 14 m/s
  mass density: 1009.5 ± 4 kg/m3
323.15 K, x1 = 0.5003
  speed of sound: 1508.2 ± 14 m/s
  mass density: 1005.1 ± 4 kg/m3
323.15 K, x1 = 0.5993
  speed of sound: 1496.6 ± 14 m/s
  mass density: 1003.1 ± 4 kg/m3
323.15 K, x1 = 0.8061
  speed of sound: 1465.3 ± 14 m/s
  mass density: 997.2 ± 4 kg/m3
323.15 K, x1 = 1
  speed of sound: 1440 ± 14 m/s
  mass density: 993.1 ± 4 kg/m3
328.15 K, x1 = 0.0199
  speed of sound: 1640.6 ± 14 m/s
  mass density: 992.4 ± 4 kg/m3
328.15 K, x1 = 0.05
  speed of sound: 1662.8 ± 14 m/s
  mass density: 1005.9 ± 4 kg/m3
328.15 K, x1 = 0.0988
  speed of sound: 1608.1 ± 14 m/s
  mass density: 1007.8 ± 4 kg/m3
328.15 K, x1 = 0.2023
  speed of sound: 1564.6 ± 14 m/s
  mass density: 1011.5 ± 4 kg/m3
328.15 K, x1 = 0.3
  speed of sound: 1545.7 ± 14 m/s
  mass density: 1009.8 ± 4 kg/m3
328.15 K, x1 = 0.4053
  speed of sound: 1522.2 ± 14 m/s
  mass density: 1006.4 ± 4 kg/m3
328.15 K, x1 = 0.5003
  speed of sound: 1493.1 ± 14 m/s
  mass density: 1002 ± 4 kg/m3
328.15 K, x1 = 0.5993
  speed of sound: 1481.7 ± 14 m/s
  mass density: 999.9 ± 4 kg/m3
328.15 K, x1 = 0.8061
  speed of sound: 1450 ± 14 m/s
  mass density: 993.9 ± 4 kg/m3
328.15 K, x1 = 1
  speed of sound: 1424.6 ± 14 m/s
  mass density: 989.9 ± 4 kg/m3
333.15 K, x1 = 0.0199
  speed of sound: 1639.8 ± 14 m/s
  mass density: 988.9 ± 4 kg/m3
333.15 K, x1 = 0.05
  speed of sound: 1655.7 ± 14 m/s
  mass density: 1002.5 ± 4 kg/m3
333.15 K, x1 = 0.0988
  speed of sound: 1597.8 ± 14 m/s
  mass density: 1004.5 ± 4 kg/m3
333.15 K, x1 = 0.2023
  speed of sound: 1551.2 ± 14 m/s
  mass density: 1008.5 ± 4 kg/m3
333.15 K, x1 = 0.3
  speed of sound: 1531.1 ± 14 m/s
  mass density: 1006.7 ± 4 kg/m3
333.15 K, x1 = 0.4053
  speed of sound: 1507.7 ± 14 m/s
  mass density: 1003.2 ± 4 kg/m3
333.15 K, x1 = 0.5003
  speed of sound: 1478.1 ± 14 m/s
  mass density: 998.8 ± 4 kg/m3
333.15 K, x1 = 0.5993
  speed of sound: 1466.7 ± 14 m/s
  mass density: 996.7 ± 4 kg/m3
333.15 K, x1 = 0.8061
  speed of sound: 1434.6 ± 14 m/s
  mass density: 990.7 ± 4 kg/m3
333.15 K, x1 = 1
  speed of sound: 1412.8 ± 14 m/s
  mass density: 986.7 ± 4 kg/m3
